Holding throughout (assay): NCI tumour cell line growth inhibition, 48 h
Test [1] relates to EKVX NSCLC.
In test [2] the test system is HT29 colon.
The subject of test [3] is K-562 leukemia.
For test [4], the system named is M14 melanoma.
In test [5] the test system is MDA-MB-231 breast.
The test system of test [6] is NCI-H460 lung.
Test [7] concerns NCI/ADR-RES ovarian.
Test [8] deals with OVCAR-8 ovarian.
Test [9] concerns SK-MEL-28 melanoma.
Test [10] has as its system SW-620 colon.
For test [11], the system named is COLO 205 colon.
Test [12] deals with MALME-3M melanoma.

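All cell lines were grown in 96-well plates and treated with compound for 48 hours. TGI: total growth inhibition.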 Where only a bound is given, the exact number is not on record here.

For the compound `Cc1cc(S(=O)(=O)/N=C(\[N-]S(=O)(=O)c2cc(Cl)sc2Cl)[n+]2ccc(N(C)C)cc2)c(S)cc1Cl`, the TGI was above 100 µM in test [1]; above 100 µM in [2]; above 100 µM in test [3]; 95.8 µM in test [4]; above 100 µM in [5]; above 100 µM in [6]. Also, the TGI in test [7], in test [8], in [9] and in test [10] was above 100 µM in each case.
`Cc1ccc(N/C(SCc2ccccc2)=C(\C(Cl)=C(Cl)Cl)[N+](=O)[O-])c(C)c1`: the TGI was 31.6 µM in test [11]; above 100 µM in test [1]; above 100 µM in test [2]; 34 µM in test [4]; 47.5 µM in [12]; 34.8 µM in [5]. In addition, the TGI was above 100 µM in test [6]; 56.5 µM in test [7]; 32.7 µM in test [8]; 71.6 µM in test [9]; 33.3 µM in test [10].
Consider `CCCCCCCCCCCCCCCCCCOCC(O)COP(=O)(O)OCC1OC(n2ccc(N)nc2=O)C(O)C1O` (stereo not drawn), for which the TGI is 29.5 µM in [11]; above 100 µM in test [1]; 50.7 µM in [2]; above 100 µM in [3]; above 100 µM in [12]; 64.7 µM in test [5]. For the same compound, the TGI is 14.8 µM in test [6]; above 100 µM in test [7]; 24.3 µM in [8]; above 100 µM in test [9]; above 100 µM in test [10].
Take `Cc1cnc2sn(-c3ccc(Br)cc3)c(=O)c2c1`: the TGI in test [11] was 49.3 µM; in test [1], above 100 µM; in test [2], 75 µM; in test [4] it was above 100 µM; in test [12], 43.6 µM; in [5] it was above 100 µM. The TGI in test [6] was above 100 µM; in [7] it was above 100 µM; in test [8], above 100 µM; in [9] it was above 100 µM; in [10] it was 89.6 µM.
For the compound `COc1cccc(/C=C2\S/C(=N/Nc3nc(-c4ccc([N+](=O)[O-])cc4)cs3)NC2=O)c1O`, the TGI worked out at 33 µM in [11]; 43 µM in [1]; 52.6 µM in test [2]; 33.2 µM in [4]; 42.3 µM in test [12]; 41.7 µM in test [5]. Besides, the TGI in [6] amounted to 42 µM; in test [7], 53.3 µM; in test [8], 48.3 µM; in test [9], 39.5 µM; in test [10], 46.1 µM.
In the case of `Cc1ccc(C(=O)N/N=C(\N=Nc2ccc(C(=O)O)cc2)c2ccc(N(CCC#N)CCC#N)cc2C)cc1`, the TGI in test [11], in [1], in test [2], in test [3], in test [4] and in [5] was above 100 µM each time. Also, the TGI in [6], in [7], in [8], in test [9] and in test [10] was above 100 µM in each case.
In the case of `CCOC1CC(C)N(C(=O)c2ccccc2)O1` (stereo not drawn), the TGI in test [1], in [2], in test [3], in test [4], in test [5] and in test [6] was above 100 µM each time. The TGI in test [7], in test [8], in test [9] and in [10] was above 100 µM each time.
For `O=c1oc2c(Cl)cc(Cl)cc2cc1C1=CSC2=NCCN12`, the TGI in [11], in [1], in test [2], in test [3], in [4] and in test [5] was above 100 µM throughout. Moreover, the TGI in test [6], in test [7], in [8], in test [9] and in [10] was above 100 µM each time.
As for `CCOC(=O)c1nc2ccc(C(F)(F)F)cc2nc1Oc1ccc(C(=O)OC)cc1`, the TGI in [11], in test [1], in [2], in test [3], in test [4] and in test [5] was above 100 µM throughout. For the same compound, the TGI in test [6], in test [7], in [8], in [9] and in [10] was above 100 µM each time.
On to `CCOC(=O)c1cccc(NC(=O)CI)c1`, for which the TGI was 1.86 µM in test [11]; 3.94 µM in test [1]; 0.646 µM in test [2]; 0.664 µM in [4]; 2.98 µM in test [12]; 2.91 µM in test [5]. The TGI in test [6] was 3.77 µM; in test [7], 1.96 µM; in test [8], 0.687 µM; in [9], 5.86 µM; in test [10], 1.64 µM.

These data come from PubChem BioAssay (NCI).
